Measurements published in article PMC5884906, “Single Administration of HBK-15—a Triple 5-HT1A, 5-HT7, and 5-HT3 Receptor Antagonist—Reverses Depressive-Like Behaviors in Mouse Model of Depression Induced by Corticosterone” (Molecular Neurobiology, 2017).
Marks after values point to notes of the source that are not given here.

Assays:
[1] = molecular target: T1, 5-HT3 receptors expressed in guinea pig ileum (Cavia porcellus, UniProt O70212); set-up: method as in PMID 25847619; settings: functional affinity; cited from earlier work
T1 construct: A segment (15 cm) of male guinea pig ileum was excised from the small intestine; from tissue; host or cells: isolated male guinea pig ileum segments in an organ bath
T1 sequence (O70212 20-490): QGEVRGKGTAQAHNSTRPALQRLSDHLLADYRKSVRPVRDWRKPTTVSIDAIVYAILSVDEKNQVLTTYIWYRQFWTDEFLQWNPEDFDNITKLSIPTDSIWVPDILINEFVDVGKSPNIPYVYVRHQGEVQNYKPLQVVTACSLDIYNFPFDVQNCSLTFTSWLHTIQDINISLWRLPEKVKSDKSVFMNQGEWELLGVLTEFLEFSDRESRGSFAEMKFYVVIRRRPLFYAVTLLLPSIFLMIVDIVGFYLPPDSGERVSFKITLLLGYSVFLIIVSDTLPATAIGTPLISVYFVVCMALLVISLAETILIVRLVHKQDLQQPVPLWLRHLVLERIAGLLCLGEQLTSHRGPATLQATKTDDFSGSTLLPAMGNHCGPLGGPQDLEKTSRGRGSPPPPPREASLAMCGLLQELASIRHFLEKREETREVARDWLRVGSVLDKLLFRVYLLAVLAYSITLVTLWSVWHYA

[2] = system: BDNF level in the hippocampus; test: BDNF level in the hippocampus (ELISA), single administration; format: in vivo, mice; settings: single 1 mg/kg i.p., corticosterone-treated mice
Experimental: (§1) Mice were injected with corticosterone (s.c., 20 mg/kg) at random times during the light phase for consecutive 21 days (Fig. 1c). The dose and route of administration of corticosterone were based on studies performed by Zhao and colleagues. After the end of the procedure, next day 30 min before the test, corticosterone-treated mice were given (i.p.) saline, HBK-15 (1.25 mg/kg), fluoxetine (10 mg/kg), or ketamine (1 mg/kg) (Fig. 1c). Control mice received (i.p.) saline. The experimental groups consisted of eight randomly selected animals. We chose the dose of HBK-15 that was active in the chronic experiments (i.e., 1.25 mg/kg). The dose of ketamine was based on the studies performed by Pazini and colleagues. Animals were tested in the forced swim test and spontaneous locomotor activity test. After behavioral testing, mice were scarified and their hippocampi collected for biochemical analysis.
After the behavioral assessments, mice were sacrificed, and their brains were rapidly removed and chilled in an ice-cold saline solution. The hippocampi were dissected on a cold plate, frozen, and stored at −80 °C until assay. On the day of experiments, tissues were thawed on ice and homogenized (1:9 w/v) in phosphate-buffered saline (4 °C) and protease inhibitor cocktail was added. The 10% homogenates were prepared and homogenized for 30 s with TissueRuptor homogenizer. The homogenized tissues were centrifuged (2500×g at 4 °C for 20 min), and the supernatants were collected for further assays.
Protein concentrations of BDNF and NGF in homogenates from hippocampi were determined using the enzyme-linked immunosorbent assay (ELISA) kits (BDNF: DZE201020014, SunRed Biotechnology Company; NGF: MBS825100, MyBioSource) according to the manufacturer’s instructions. […] The samples were analyzed in duplicates, and the mean concentrations were calculated. […] The intensity of the color was read at 450 nm. Absorbance was measured in a multifunction plate reader (POLARstar Omega, BMG Labtech, Germany). […]

[3] = system: corticosterone-treated mice; test: spontaneous locomotor activity, single administration; format: in vivo; settings: single 1 mg/kg i.p. in corticosterone-treated mice; 4 min
Experimental: as §1, with “After the end of the procedure, next day 30 min before the test, corticosterone-treated mice were given (i.p.) saline, HBK-15 (1.25 mg/kg), fluoxetine (10 mg/kg), or ketamine (1 mg/kg) (Fig. 1c).” left out
The locomotor activity was performed as previously described. Locomotor activity was recorded individually for each mouse using activity cages made of clear Perspex (40 cm × 40 cm × 31 cm, Activity Cage 7441, Ugo Basile, Italy). The cages were supplied with I.R. horizontal beam emitters connected to a counter for the recording of light-beam interruptions. Each mouse was placed in a cage for a 30-min habituation period. After that time, the number of crossings of photobeams was measured for 6 min (chronic studies) or for 4 min (acute experiments; i.e., the time equal to the observation period in the forced swim test). The cages were disinfected with 70% ethanol after each mouse.

[4] = system: corticosterone-treated mice; test: forced swim test, single administration, corticosterone model; format: in vivo; settings: single 1 mg/kg i.p., 30 min before the test
Experimental: as §1
Forced swim test was performed according to the method described by Porsolt and colleagues and previously described. Mice were placed individually for 6 min in glass cylinders (height 25 cm, diameter 10 cm) containing […] (23–25 °C). The total time of immobility was recorded during the final 4 min of the test. The experiments were recorded and scored using aLab.io software by a trained observer blind to the treatments.

## Cc1nccn1CC1CCc2c(c3ccccc3n2C)C1=O (stereo not shown) [Ondansetron]
[1]
  5-HT3 receptor pK B ± S.E.M: 7.111 ± 0.12^a

## CNC1(c2ccccc2Cl)CCCCC1=O (stereo not shown) [ketamine]
[2]
  increase in BDNF level in the hippocampus compared with controls: 33%
[3]
  Number of crossings ± S.E.M: 248.7 ± 25.3
[4]
  effect on corticosterone-induced increase in immobility: reversed an increase in immobility
